Reference: US9670255B2 (priority 2013, dated 2017)

Columns and labels:
LISA314 V21 = LISA314 V21 (Streptomyces avidinii, UniProt P22629, E125D/E140N/N47D/R108K/R127K/S51D/Y107S/Y46S); assay: Affinity analysis by SPR (Biacore assay), LISA314 V21; assay type: binding; conditions: SPR Biacore T100, protein immobilized on Sensor Chip NTA, equilibrium value analysis, read-out: Dissociation constant: KD
Protocol: (§1) For affinity analysis, Biacore T100 was used. Specifically, the protein that had been fractionated by gel filtration chromatography was immobilized using Sensor Chip NTA. As a running buffer, 0.5% Tween20, HBS-P+ was used. Immobilization of the protein on nickel NTA and ligand capture were carried out according to the template program included therewith.
(§2) The amount of a ligand immobilized on a sensor chip was adjusted within the range of 1608 RU to 8042 RU, so as to suppress mass transport limitation. As analytes, biocytin and Compound 29 (the structure thereof is shown below) synthesized in Example 1 were used. It is to be noted that biocytin is a main existence form of biotin.
(§3) With regard to the concentrations of the analytes, in the case of biocytin, eight 2-fold dilution series were prepared from 1 μM, and in the case of Compound 29, twelve 2-fold dilution series were prepared from 16 μM. The measurement was carried out at a flow rate of 30 μl/min, for a contact time of 120 seconds, and for a dissociation time of 600 seconds. For the analysis of the data, sensorgrams for all concentrations were incorporated into analysis software, the equilibrium value analysis was then carried out, and the dissociation constant KD was then calculated.

LISA314 WT = assay: Affinity analysis by SPR (Biacore assay), LISA314 WT; assay type: binding, Streptomyces avidinii; conditions: SPR Biacore T100, protein immobilized on Sensor Chip NTA, equilibrium value analysis, read-out: Dissociation constant: KD
Protocol: as §1, §2, §3

Chain of LISA314 V21 (P22629 25-183 Y46S/N47D/S51D/Y107S/R108K/E125D/R127K/E140N limits assumed): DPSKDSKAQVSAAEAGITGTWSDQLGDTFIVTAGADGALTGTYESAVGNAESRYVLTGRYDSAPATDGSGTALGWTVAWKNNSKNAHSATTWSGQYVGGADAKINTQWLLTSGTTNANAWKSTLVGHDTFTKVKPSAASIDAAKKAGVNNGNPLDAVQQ

N[C@@H](CCCCNC(=O)CCCC[C@@H]1SC[C@@H]2NC(=O)N[C@@H]21)C(=O)O [Biocytin, biocytin]
Kd (LISA314 V21): 348 nM | Kd (LISA314 WT): 2.38 nM
